Test results from US20120122908A1, “Novel C-4 Substituted Retinoids” (University of Maryland, priority 2000, published 2012).
Where two headings read alike, the source gives them in different places.

Legend:
CYP19 (aromatase) = biological target: T1, CYP19 (aromatase) (Homo sapiens, UniProt P11511); test: Selectivity: effect on CYP19 (aromatase); format: biochemical; details: concentration as high as 5 μM
T1 sequence (P11511 1-503): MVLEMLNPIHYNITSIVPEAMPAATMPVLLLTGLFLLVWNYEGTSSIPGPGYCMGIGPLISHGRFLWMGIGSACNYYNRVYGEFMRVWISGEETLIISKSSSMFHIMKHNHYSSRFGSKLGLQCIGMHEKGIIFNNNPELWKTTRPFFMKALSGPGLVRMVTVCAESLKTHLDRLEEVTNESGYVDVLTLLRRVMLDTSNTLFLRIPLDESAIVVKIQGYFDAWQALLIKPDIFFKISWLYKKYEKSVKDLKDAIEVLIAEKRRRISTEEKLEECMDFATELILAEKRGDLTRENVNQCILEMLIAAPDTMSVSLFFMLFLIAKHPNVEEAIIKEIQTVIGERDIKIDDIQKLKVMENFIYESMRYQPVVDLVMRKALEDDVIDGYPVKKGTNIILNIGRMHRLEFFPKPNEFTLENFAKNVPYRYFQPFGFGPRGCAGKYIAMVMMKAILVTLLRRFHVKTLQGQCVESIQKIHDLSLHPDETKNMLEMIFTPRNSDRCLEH
Method: (§1) The selectivity of the compounds of the present invention towards ATRA-4-hydroxylase was tested by measuring the effect on the key enzymes in the biosynthesis of estradiol and dehydroepiandrosterone, CYP19 (aromatase) and CYP17 (17-lyase), respectively.

CYP17 (17-lyase) = biological target: T2, CYP17 (17-lyase) (Homo sapiens, UniProt P05093); test: Selectivity: effect on CYP17 (17-lyase); format: biochemical; details: concentration as high as 5 μM
T2 sequence (P05093 1-508): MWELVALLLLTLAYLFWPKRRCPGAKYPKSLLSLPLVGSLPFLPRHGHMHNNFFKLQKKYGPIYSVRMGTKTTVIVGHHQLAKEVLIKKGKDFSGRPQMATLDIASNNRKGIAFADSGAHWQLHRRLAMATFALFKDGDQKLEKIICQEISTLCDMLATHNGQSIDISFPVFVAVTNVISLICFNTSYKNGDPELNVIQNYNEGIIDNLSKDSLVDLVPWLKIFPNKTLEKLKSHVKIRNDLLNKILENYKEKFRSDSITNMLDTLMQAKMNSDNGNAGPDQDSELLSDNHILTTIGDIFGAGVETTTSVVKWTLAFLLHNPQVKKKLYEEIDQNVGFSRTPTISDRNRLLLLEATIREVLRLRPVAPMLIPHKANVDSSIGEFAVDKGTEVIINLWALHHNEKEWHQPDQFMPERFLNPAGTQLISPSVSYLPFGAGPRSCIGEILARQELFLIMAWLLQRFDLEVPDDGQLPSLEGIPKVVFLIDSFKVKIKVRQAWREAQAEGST
Method: as §1

[1] = Pharmacokinetic studies in mice (plasma levels by HPLC); format: in vivo; details: mice, 10 mg/kg s.c.
Method: FIG. 18: Plasma Levels in Balb/c Mice Following Dose of 10 mg/kg body weight Given s/c.
Pharmacokinetic studies of VN/65-4 and VN/66-1 were measured in mice and were compared to VN/14-1 and VN/50A-1. Mice were dosed s.c. at 10 mg/kg using a vehicle, 45% β-cyclodextrin in water, and plasma levels were measured by HPLC. […] The results are summarized in Table 3 below and the profiles in FIG. 18.

[2] = Effect of VN/65-4 on plasma elimination of ATRA; format: in vivo; details: mice, VN/65-4 10 mg/kg s.c. one hour before ATRA 1.0 mg/kg s.c.
Method: FIG. 19: Plasma Concentration of ATRA (1 mg/kg) After a Dose of 10 mg/kg body weight of VN/65-4.
To determine the ability of VN/65-4 to delay the velocity of plasma elimination of ATRA, mice were treated s.c. with VN/65-4 (10 mg/kg). One hour later, the mice were administered s.c. ATRA (1.0 mg/kg) and sacrificed at various time points. […] From these experiments it is believed that it is possible to improve ATRA efficacy by reducing its enhanced metabolism to increase endogenous levels.

ATRA 4-hydroxylase = ATRA 4-hydroxylase (Mesocricetus auratus, UniProt A0A1U7QD41); test: Hamster liver microsome assay of ATRA metabolism (ATRA 4-hydroxylase inhibition); format: biochemical; details: hamster liver microsomes
Method: Washed hamster liver microsomes were prepared as follows: Livers are removed from sacrificed animals, rinsed in ice-cold 0.9% NaCl solution and homogenized in a 3-fold volume of 0.25 M sucrose-0.05 M Tris-HCl (pH 7.4) using a blender. Microsomes are isolated by differential centrifugation (10,000×g, 20 minutes; 100,000×g, 60 minutes; 4° C.) using a well-known technique (Van Wauwe, J.; Van Nyen, G.; Coene, M-C.; Stoppie, P.; Cols, W.; Goossens, J, Borghgraef, P.; Janssen, P A J, Liarozole, an Inhibitor of Retinoic Acid Metabolism, Exerts Retinoid-Mimetic Effects, In Vivo. J. Pharmacol. Expt. Ther. 261, 773-779, 1992). The microsomes are suspended in PBS buffer (pH 7.4), in 1 ml aliquots and stored at −70° C. until required.
The standard reaction mixture (total of 400 μl) is composed of assay buffer, 140 μl; microsomes, 100 μl ([…]); NADPH, 100 μl ([…]); and a C-4 substituted ATRA analog dissolved in DMSO, 40 μl. After a 3 minute preincubation at 37° C., the reaction is initiated by addition of 20 μl of [11,12-^3H]-ATRA (20 μCi/ml). The incubation is carried out for 30 minutes under oxygen with shaking in a water bath at 37° C. The reaction is stopped by acidification with 0.1 ml formic acid, and the samples are extracted (×2) with EtOAc (2 ml) containing 0.05% butylated hydroxyanisole. The combined organic extracts are evaporated in vacuo, dissolved in 200 μl of the mobile phase for HPLC. An aliquot is analyzed for tritium content by liquid scintillation spectrometry. Usually, >95% of the added radioactivity is recovered. Most of the samples (150 μl) are analyzed on a 10 (m C18 Bondapak column (3.9×300 mm, Millipore), eluted with a multi-linear gradient solvent system: i, MeOH—H2O—HCOOH (60:40:0.05) containing 10 mM ammonium acetate (100 (0%) and ii, MeOH (0 (100%) at 2 ml/min. The radioactivity is measured by an on-line radio-detector. The Rts of ATRA, 4-hydroxy-ATRA and 4-oxo-ATRA are determined by UV absorbance at 350 nm in separate cuvettes. Typically, 80±5% of [11, 12-^3H]ATRA is converted into the metabolites.
The C-4 substituted ATRA analogs are tested at two concentrations, 500 and 1000 nM. IC50 and Ki values are determined.
Incubation of [11,12-^3]ATRA with hamster liver microsomes as described above results in the formation of polar metabolites, including 4-hydroxy-ATRA and 4-oxo-ATRA (see FIG. 7A). […] VN/14-1RA inhibits cytochrome P450-dependent metabolism of ATRA.
Table 2B represents repeated testing of some of the compounds in Table 2A and testing on additional compounds. For comparison, the IC50 values of liarozole and ketoconazole (known inhibitors of ATRA 4-hydroxylase) were also determined.

LNCaP cells = test: LNCaP cell growth, compound in combination with ATRA; format: cell-based, human; details: for inhibition of proliferation of LNCaP cells: 10^−8 to 10^−5 M in combination with 10^−5 M ATRA, compared with no drug or ATRA only; for concentration(s) that prevent the LNCaP cells from increasing in number: in combination with 10^−5 M ATRA, tested 10^−8 to 10^−5 M
Method: LNCaP cells are androgen-dependent cell cultures. PC-3 cells are androgen independent cell culture.
LNCaP cells are transferred into ATRA-free medium 3 days prior to start of experiments. Medium consist of phenol red-free IMEM supplemented with 5% FBS and 1% P/S. Cell are then plated into 24-well culture plates (15000 cells per well) in 1 mL of same medium. After a 24-hour attachment period, the vehicle (ethanol) or ATRA (10^−5 M) alone or ATRA in combination with a novel compound at a range of concentrations are added to triplicate wells. Medium/treatments are changed every 3 days. After 9 days of treatment, cells are removed from the wells with typsin/EDTA and counted in a Coulter counter. Using well-known methods (Wouters W, Van Dun J, Dillen A, Coene M.-C, Cools W and De Coster R, Effects of liarozole, a new antitumoral compound an retinoic acid-induced inhibition of cell growth and on retinoic acid metabolism in MCF-7 breast cancer cells, Cancer Res 52: 2841-2846, 1992), one determines the inhibitory effect of the novel compounds on LNCaP cells grown with ATRA.

PC-3 tumors = test: Growth of PC-3 tumors in male nude mice; format: in vivo; details: PC-3 xenografts
Method: FIG. 20: Effect of ATRA and VN/50A-1 on PC 3 Tumor Volumes in Male Nude Mice
The effects of VN/50A-1 on tumor growth was determined in mouse xenografts and compared to ATRA as the reference treatment (FIG. 20). Mice were grouped 35 days after cell inoculation when measurable tumor volume was approximately 500 mm^3. Total tumor volume in the control mice increased 5.4-fold over 7 weeks and tumor volume in the mice treated with ATRA increased by 3.2-fold (41% reduction compared with control). In the mice treated with VN/50A-1, tumor volume increased by 3.5-fold, which was 38% reduction versus control mice, which correlated well with accumulation of ATRA in plasma and in tumors. […] VN/50A-1 is completely eliminated from plasma within 3 hour of administration to mice (see FIG. 18). The inventive compounds with longer half-lives will have favorable bioavailability and are expected to be more efficacious.

[3] = system: ATRA 4-hydroxylase activity in LNCaP cells; test: Induction of ATRA metabolism in LNCaP cells; format: cell-based, human; details: LNCaP cells preincubated with 1.0 μM ATRA, 0.8 μM [3H]ATRA
Method: FIG. 17: Metabolism of 0.8 μM 3H-ATRA Following Induction with 1 μM ATRA in LNCaP Cells.
The potential of these cell lines to metabolize ATRA was investigated. […] LNCaP cells were preincubated with 1.0 μM ATRA for different time periods up to 48 hour. Following preincubation, ATRA metabolism was determined using 0.8 μM [11,12-^3H]ATRA. Induction of 4-hydroxylase activity ([^3H]ATRA metabolism was time-dependent with a fast onset and maximal induction achieved after a preincubation period of 18 hour (FIG. 17).

[4] = Table 2A, initial testing, read-out: IC50 Value
[5] = Table 2B, repeated testing and additional compounds, read-out: IC50 Value, Inhibition of ATRA 4-Hydroxylase

Chain of ATRA 4-hydroxylase (A0A1U7QD41 entry or part of it): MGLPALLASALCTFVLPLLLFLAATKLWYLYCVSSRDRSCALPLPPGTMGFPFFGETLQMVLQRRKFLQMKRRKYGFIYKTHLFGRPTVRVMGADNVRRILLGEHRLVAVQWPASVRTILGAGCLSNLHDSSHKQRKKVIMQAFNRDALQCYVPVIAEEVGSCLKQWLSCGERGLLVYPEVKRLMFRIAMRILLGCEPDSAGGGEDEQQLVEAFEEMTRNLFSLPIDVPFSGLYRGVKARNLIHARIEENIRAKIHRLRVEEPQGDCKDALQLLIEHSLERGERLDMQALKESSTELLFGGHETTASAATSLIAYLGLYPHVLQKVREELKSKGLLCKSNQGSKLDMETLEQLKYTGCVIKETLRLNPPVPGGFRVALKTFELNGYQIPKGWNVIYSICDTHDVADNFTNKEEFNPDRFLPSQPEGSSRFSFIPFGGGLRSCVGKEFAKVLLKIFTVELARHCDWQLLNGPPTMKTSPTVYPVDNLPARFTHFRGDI

IC50 (ATRA 4-hydroxylase; [4])	IC50 (ATRA 4-hydroxylase; [5])	Compound	inhibition of proliferation of LNCaP cells (LNCaP cells)	concentration(s) that prevent the LNCaP cells from increasing in number (LNCaP cells)	further results
		COC(=O)C=C(C)C=CC=C(C)C=CC1=C(C)C(n2ccnc2)CCC1(C)C (mixture of isomers) [VN/65-4, (±)-4-(1H-imidazol-1-yl)-13-cis-methylretinoate]			inhibition of CYP19 (aromatase) (CYP19 (aromatase)): barely inhibited; inhibition of CYP17 (17-lyase) (CYP17 (17-lyase)): barely inhibited; in vivo conversion to corresponding acid [1]: rapidly and completely converted to corresponding acid; rate of plasma elimination of ATRA [2]: delayed the rate of ATRA elimination significantly
680 ± 3 nM	1 ± 0.05 nM	COC(=O)C=C(C)C=CC=C(C)C=CC1=C(C)C(n2cncn2)CCC1(C)C (racemic) [VN/13-1, (±)-4-(1H-1,2,4-triazol-1-yl)methyl retinoate]			
	10 ± 0.3 nM	COC(=O)C=C(C)C=CC=C(C)C=CC1=C(C)C(n2cnnc2)CCC1(C)C (racemic) [VN/13-2, (±)-4-(4H-1,2,4-triazole-1-yl)methyl retinoate]			
880 ± 8 nM	5 ± 0.25 nM	CC1=C(/C=C/C(C)=C/C=C/C(C)=C/C(=O)O)C(C)(C)CCC1n1cncn1 (racemic) [VN/16-1, (±)-4-(1H-1,2,4-triazol-1-yl)retinoic acid]	inhibit the proliferation of LNCaP cells better than no drug or ATRA only	10^−5 M	
1620 nM	25 ± 0.5 nM	CC1=C(/C=C/C(C)=C/C=C/C(C)=C/C(=O)O)C(C)(C)CCC1n1cnnc1 (racemic) [VN/17-1]	inhibit the proliferation of LNCaP cells better than no drug or ATRA only	All concentrations	
		CC1=C(/C=C/C(C)=C/C=C/C(C)=C/C(=O)O)C(C)(C)CCC1 [ATRA, All-trans retinoic acid, reference compound]			tumor weights versus control mice (PC-3 tumors): significantly (P<0.05) lower; reduction of tumor volume compared with control (PC-3 tumors; over 7 weeks): 41%; increase of total tumor volume (PC-3 tumors; over 7 weeks, control 5.4-fold): 3.2 fold; preincubation period for maximal induction of 4-hydroxylase activity [3]: 18 h
		Clc1cccc(C(c2ccc3[nH]cnc3c2)n2ccnc2)c1 (stereo not drawn) [Liarozole, reference compound]	inhibit the proliferation of LNCaP cells better than no drug or ATRA only	10^−5 M	
